# Counter-ions that a name gives are not always drawn. Marks after values point to notes of the source that are not given here.
# Key:
# [1] = tested on: experimental murine fibrosarcoma (RIF-1 cells); assay: Regrowth delay of the treated transplantable murine fibrosarcoma; type: in vivo, murine; female C3H mice; conditions: for Regrowth Delay: time to 4 times initial treatment volume (150 mm^3), Mean ± S.E.
# Protocol: times their initial treatment volume (150 mm^3). Increasing values
# indicate enhanced therapeutic effect.
# When the tumors reached a volume of 150 mm^3, the mice were assigned randomly to the following groups (4-6 mice per group): (1) untreated controls; (2) 5-FU (100 mg/kg), i.p., 0.1 ml/mouse; (3) 5-FU (100 mg/kg), i.t., 0.1 ml/tumor; (4) 5-FU-BC (100 mg 5-FU/kg dispersed in BC (18 mg/ml)), i.t., 0.1 ml/tumor; 5-FU-EPI-BC (100 mg 5-FU/kg) 5 mg EPI/kg dispersed in BC (18 mg/ml), i.t., 0.1 ml/tumor.
# In the next study doxorubicin-HCl (ADM) (Adriamycin) was studied using the above-described protocol. The adriamycin in distilled water (4.45 mg/ml) was mixed with 36 mg/ml bovine collagen (BC) 1:1 to yield a composition ratio of 2.25 mg adriamycin:18 mg BC/ml.
# ^2 Tumor Regrowth Delay (RD). Time (days) required for tumors to grow
# to 3 × its original treatment volume (~150 mm^3).
# Increasing RD indicate increased tumor cell killing.
# [2] = tested on: uninjected contralateral fibrosarcoma (RIF-1 cells); assay: Regrowth delay of the uninjected contralateral fibrosarcoma; type: in vivo, murine; female C3H mice; conditions: for Regrowth Delay, uninjected contra: time to 4 times initial volume, Mean ± S.E.
# Protocol: A transplantable experimental murine fibrosarcoma (2×10^5 RIF-1 cells) was grown intradermally in the flank of 5 month old female C3H mice (Bantin and Kingman, Fremont, Calif.). Cis-diamine dichloroplatinum (II) (cis-Pt) (Sigma Chemical Co., St. Louis, Mo.) was dissolved in sterile saline at concentrations of 0.8, 1.6 and 3.2 mg/ml and mixed 1:1 with bovine collagen (BC) (36 mg/ml) in PBS 20 mM phosphate, 140 mM NaCl (Collagen Corp., Palo Alto, Calif.). Doses of 2, 4 and 8 mg/kg host of cis-Pt were delivered in 0.1 ml of the collagenous drug mixture to the center of the tumor growing in the flank (intratumorally, i.t.), and the tumor measured. The growth of a second uninjected tumor on the opposing flank of the same mouse was also measured. In addition, cis-Pt dissolved in PBS without collagen was administered intraperitoneally (i.p.) to other tumor-bearing mice (4 tumors/group) to monitor the effects on tumor growth of the drug without collagen. Furthermore, the effect of bovine collagen on tumor growth was also studied by injection of 0.1 ml of collagen, (18 mg/ml) into the experimental fibrosarcomas, as previously described. The growth of the tumors was monitored three times per week by caliper measurements of three perpendicular diameters of the tumor and calculating tumor volume from the formula
# *Regrowth Delay determined as the time (days) for tumors to grow to four
# times their initial treatment volume (150 mm^3).
# (§1) In the next study 5-fluorouracil (5-FU) (Sigma Chem. Co., St. Louis, Mo.) with and without epinephrine (Sigma) suspended in saline by sonication (60 mg/ml) and mixed 1:1 with bovine collagen (BC) (Collagen Corp., Palo Alto, Calif.) (36 mg/ml) or normal saline. The subjects were 25 gm 12 week-old female C3H/He mice (Bantin and Kingman, Fremont, Calif.) bearing the transplatable experimental murine fibrosarcoma propagated intradermally as previously described.
# (§2) The adriamycin in distilled water (4.45 mg/ml) was mixed with 36 mg/ml bovine collagen (BC) 1:1 to yield a composition ratio of 2.25 mg adriamycin:18 mg BC/ml.
# ^3 Contralateral Tumor RD (CRD). Time (days) required for untreated
# contralateral tumors to grow to 3× its original treatment volume
# (~150 mm^3). Decreasing RD indicate enhanced regionalization of
# drug injected when compared to RD.
# (§3) In the next study vincristine (VCR) was dissolved in saline (0.6 mg/ml) by sonication and mixed 1:1 with bovine collagen (36 mg/ml). Otherwise, the procedure was the same.
# In the next study a combination of bleomycin sulfate (Sigma Chemical Co., St. Louis, Mo.) (15 mg/kg) and epinephrine (5 mg/kg) employed in a bovine collagen composition were evaluated for antitumor effect in the transplantable experimental murine fibrosarcoma model previously described. […]
# white blood cells = assay: White blood cell count in tumor-bearing mice
# Protocol: as §1
# (§4) On day four post-treatment, white blood cells (wbc) were counted by sampling blood from the tail, dilution in Turk's solution and counting in a hemocytometer. On day eight post-treatment, skin reaction is overlying tissue was graded for untoward response.
# as §2
# ^4 White Blood Cells measured on Day 4 post injection by sampling fro
# the tail of treatment mice.
# as §3
# In the next study a combination of bleomycin sulfate (Sigma Chemical Co., St. Louis, Mo.) (15 mg/kg) and epinephrine (5 mg/kg) employed in a bovine collagen composition were evaluated for antitumor effect in the transplantable experimental murine fibrosarcoma model previously described.
# (§5) In another experiment the curative potential of drug matrix formulations was evaluated in the experimental murine fibrosarcoma model. Briefly, female C3H/He mice bearing a single experimental tumor produced as previously described were treated at weekly intervals with formulations containing 5-fluorouracil (50 mg/kg); bovine collagen BC (Collagen Corp., Palo Alto, Calif.); epinephrine (Sigma Chemical Co., St. Louis, Mo.); and PBS. WBC's were determined on Day 4 following each treatment cycle and skin reaction on […] after each treatment cycle. Treatment was discontinued for all grops when 3 of 4 experiment groups reach 4×initial tumor volume. When tumors reached a volume of 150 mm^3 the mice were randomly assigned to the following groups:
# (§6) 2. 5-FU-PBS i.p.; 5-FU (23 mg/ml) was combined 1:1 with PBS; 0.1 ml injected/mouse i.p.
# (§7) 3. 5-FU-PBS i.t.; 5-FU (23 mg/ml) was combined 1:1 with PBS; 0.1 ml injected/tumor i.t.
# (§8) 4. 5-FU-BC i.t.; 5-FU (23 mg/ml) was combined 1:1 with bovine collagen (36 mg/ml); 0.1 ml injected i.t.
# (§9) In another experiment the influence of matrix composition on antitumor activity of 5-fluorouracil (100 mg/kg) was evaluated in the experimental murine fibrosarcoma model previously described. 5-FU (Sigma Chemical Co., St. Louis, Mo.) was combined as described below with bovine collagen BC (Collagen Corp., Palo Alto, Calif.); bovin fibronogen (95% clottable, Sigma), bovine thrombin (2000NIH units/mg, Sigma) and Ringer's Solution For Injection (RFI, Abbott Labs., North Chicago, Ill.). When tumors reached a volume of 150 mm^3 the mice (Bantin and Kingman, Fremont, Calif.) were assigned randomly to the following groups, (3-4 mice/group):
# (§10) 3. 5-FU-Fibrinogen: 5-FU (36 mg/ml) combined 1:1 with the fibrinogen preparation described in 2 above, 0.1 ml i.t.
# (§11) 4. 5-FU-BC-Fibrinogen: 5-FU (36 mg/ml) combined 1:1 with a fibrinogen-BC preparation consisting of fibrinogen (30 mg/ml); BC (36 mg/ml) dispersed in RFI containing 1 NIH unit of thrombin activity/ml, 0.1 ml i.t.
# skin overlying the tumor = assay: Skin reaction of the skin overlying the tumor
# Protocol: as §4
# (§12) The skin reaction is scored as follows: […]
# as §12, §5, §9, §10, §11
# In the next experiment 5-fluorouracil-matrix implant in combination with X-rays was evaluated. Single RIF-1 tumors were grown on the back of female C3H mice (12-16 weeks) (Bantin and Kingman, Fremont, Calif.) as previously described. When the tumors reached volumes of 150 mm^3, they were divided into the following groups, (4-6 mice/group):
# (§13) Tumor bearing mice were irradiated in lead jigs exposing only the tumor and overlying skin with a 250 kVp X-ray machine at a dose rate of 120 rad/min. The tumors of the treated and untreated mice were measured three times per week and assayed for regrowth delay and skin reactions as previously described.
# [3] = tested on: experimental murine fibrosarcoma; assay: Tumor regrowth delay on weekly treatment (curative potential); type: in vivo, murine; female C3H/He mice
# Protocol: as §5, §6, §7, §8
# RIF-1 tumor [4] = assay: RIF-1 tumor regrowth delay, 5-fluorouracil-matrix implant in combination with X-rays; type: in vivo, female C3H mice; conditions: 5-FU 75 mg/Kg, i.p.
# Protocol: In the next experiment 5-fluorouracil-matrix implant in combination with X-rays was evaluated. […] When the tumors reached volumes of 150 mm^3, they were divided into the following groups, (4-6 mice/group):
# 2. X-rays (1000 rad.) alone
# 3. Collagen-matrix (CM) i.t. 5 min. before X-rays
# 4. 5-Fluorouracil (5-FU) (75 mg/Kg) i.p.
# 6. 5-FU i.p. 5 min before X-rays
# as §13
# [5] = Acute animal toxicity / survival after injection; conditions: 15 mg/kg
# Protocol: as §1, §2
# RIF-1 tumor [6] = assay: RIF-1 tumor regrowth delay, cis-DDP-matrix implant in combination with hyperthermia; type: in vivo, female C3H mice; conditions: cis-DDP 6 mg/Kg, i.p.
# Protocol: In the next study cis-DDP-matrix (DDP=cis-Pt) implant in combination with hyperthermia was evaluated.
# 2. Hyperthermia (43° C., 30 min) alone
# 3. Hyperthermia+collagen-matrix (CM)+epinephrine (epi) (2 mg/Kg)
# 4. cis-DDP (6 mg/Kg) i.p.
# 6. cis-DDP (i.p.) 30 min before hyperthermia
# 7. cis-DDP-CM-epi (i.t.) 30 min before hyperthermia.
# The tumor bearing mice were heated in a precision water bath with 30 gauge thermistor thermometry (±0.2° C.).
# [7] = 5-FU 100 mg/kg, i.p., mean ± S.E.
# [8] = 5-FU 100 mg/kg, i.t. (± EPI 5 mg/kg), mean ± S.E.
# [9] = 5-FU 50 mg/kg on Days 0, 8 and 16, i.p.
# [10] = 5-FU 50 mg/kg on Days 0, 8 and 16, i.t. (± Epinephrine 5 mg/kg)
# [11] = BLM 15 mg/kg, i.p., mean ± S.E.
# [12] = BLM 15 mg/kg, i.t. (± EPI 5 mg/kg), mean ± S.E.
compound,measurement,setting,value
"O=c1[nH]cc(F)c(=O)[nH]1 [5-FU, 5-fluorouracil]",Tumor Regrowth Delay,[1]; [7],13.1 ± 1.4 days
same,Tumor Regrowth Delay,[1]; [8],14.5 ± 0.9 days
same,Untreated Contralateral Regrowth Delay,[2]; [7],13.1 ± 1.4 days
same,Untreated Contralateral Regrowth Delay,[2]; [8],11.1 ± 0.6 days
same,WBC D-12,white blood cells; [9],109 ± 28
same,WBC D-12,white blood cells; [10],107 ± 25
same,White Blood Cells/mm^3,"white blood cells; 5-FU 100 mg/kg, i.p., day four post-treatment",4.5 ± 0.6 Cells/mm^3 (× 10^3)
same,White Blood Cells/mm^3,"white blood cells; 5-FU 100 mg/kg, i.t. (± EPI 5 mg/kg), day four post-treatment",3.5 ± 0.5 Cells/mm^3 (× 10^3)
same,Skin Reaction D-8,skin overlying the tumor; [9],1.2 ± 1.1
same,Skin Reaction D-8,skin overlying the tumor; [10],1.0 ± 0.6
same,Skin Reaction,"skin overlying the tumor; 5-FU 75 mg/Kg, i.p. + X-rays (1000 rad), scored as previously described (0-3)",2
same,Skin Reaction,"skin overlying the tumor; 5-FU 75 mg/Kg, i.p., no X-rays, scored as previously described (0-3)",2
same,Skin Reaction,"skin overlying the tumor; 5-FU 100 mg/kg, i.p., Day 8, 0 = no effect, 1 = superficial inflammation, 2 = scab, 3 = ulcer",0.7 ± 0.4
same,Skin Reaction,"skin overlying the tumor; 5-FU 100 mg/kg, i.t. (± EPI 5 mg/kg), Day 8, 0 = no effect, 1 = superficial inflammation, 2 = scab, 3 = ulcer",0
same,Tumor Regrowth 4 ×,[3]; [9],10.3 ± 1.3 days
same,Tumor Regrowth 4 ×,[3]; [10],14.9 ± 3.8 days
same,2× Tumor Regrowth Delay,RIF-1 tumor [4]; 5 min before X-rays (1000 rad),12.6 ± 2.8 days
same,2× Tumor Regrowth Delay,RIF-1 tumor [4]; no X-rays,8.5 ± 1.1 days
"COc1cccc2c1C(=O)c1c(O)c3c(c(O)c1C2=O)C[C@@](O)(C(=O)CO)C[C@@H]3O[C@H]1C[C@H](N)[C@H](O)[C@H](C)O1 [Free ADM, doxorubicin-HCl]","Tumor Regrowth Delay, Treated","[1]; ADM 15 mg/kg, i.t., time to 3 × original treatment volume (~150 mm^3)",13.7 ± 1.7 days
same,"Tumor Regrowth Delay, Contralateral","[2]; ADM 15 mg/kg, i.t., untreated contralateral tumor, time to 3× original treatment volume (~150 mm^3)",8.3 ± 0.75 days
same,White Blood Cells/mm^3,"white blood cells; ADM 15 mg/kg, i.t., Day 4 post injection",4.1 ± 0.69 Cells/mm^3 (× 10^3)
same,Skin Reaction,"skin overlying the tumor; ADM 15 mg/kg, i.p., Day 8 post injection, 0 = no effect, 1 = superficial inflammation, 2 = scab, 3 = ulcer",1.5 ± 0.5
same,Skin Reaction,"skin overlying the tumor; ADM 15 mg/kg, i.t., Day 8 post injection, 0 = no effect, 1 = superficial inflammation, 2 = scab, 3 = ulcer",2.0
same,toxicity of intratumoral injection,[5]; intratumoral injection,non-toxic
same,survival,"[5]; mouse, in vivo",100%
same,mortality,"[5]; mouse, in vivo, ip",75%
same,survival,"[5]; mouse, in vivo, ip",25%
"CC[C@]1(O)C[C@H]2CN(CCc3c([nH]c4ccccc34)[C@@](C(=O)OC)(c3cc4c(cc3OC)N(C=O)[C@H]3[C@@](O)(C(=O)OC)[C@H](OC(C)=O)[C@]5(CC)C=CCN6CC[C@]43[C@@H]65)C2)C1 [VCR, vincristine]",Tumor Regrowth Delay,"[1]; VCR 2 mg/kg, i.p.",10.6 ± 2.0 days
same,Untreated Contralateral Regrowth Delay,"[2]; VCR 2 mg/kg, i.p.",10.6 ± 2.0 days
same,White Blood Cells/mm^3,"white blood cells; VCR 2 mg/kg, i.p.",7.4 ± 1.3 Cells/mm^3 (× 10^3)
same,Skin Reaction,"skin overlying the tumor; VCR 2 mg/kg, i.p., scored as in the preceding studies (0-3)",0.6 ± 0.4
"N.N.[Cl][Pt][Cl] [cis-Pt, Cis-diamine dichloroplatinum (II)]",Regrowth Delay,"[1]; i.p., 2 mg/kg cis-Pt",7.2 ± 0.1 days
same,Regrowth Delay,"[1]; i.p., 4 mg/kg cis-Pt",9.1 ± 0.7 days
same,Regrowth Delay,"[1]; i.p., 8 mg/kg cis-Pt",9.9 ± 1.0 days
same,Regrowth Delay,"[1]; i.t., 2 mg/kg cis-Pt, injected tumor",9.5 ± 0.5 days
same,Regrowth Delay,"[1]; i.t., 4 mg/kg cis-Pt, injected tumor",10.3 ± 0.7 days
same,Regrowth Delay,"[1]; i.t., 8 mg/kg cis-Pt, injected tumor",11.5 ± 0.04 days
same,"Regrowth Delay, uninjected contra",[2]; opposing tumor injected i.t. with 2 mg/kg cis-Pt,9.3 ± 1.2 days
same,"Regrowth Delay, uninjected contra",[2]; opposing tumor injected i.t. with 4 mg/kg cis-Pt,8.9 ± 0.7 days
same,"Regrowth Delay, uninjected contra",[2]; opposing tumor injected i.t. with 8 mg/kg cis-Pt,9.9 ± 0.9 days
same,Tumor Regrowth Delay (2×),"RIF-1 tumor [6]; 30 min before hyperthermia (43° C., 30 min)",8.9 ± 0.8 days
same,Tumor Regrowth Delay (2×),RIF-1 tumor [6]; no hyperthermia,6.5 ± 1.5 days
bleomycin sulfate [BLM],Tumor Regrowth Delay,[1]; [11],7.5 ± 0.9 days
same,Tumor Regrowth Delay,[1]; [12],8.9 ± 0.6 days
same,Untreated Contralateral Regrowth Delay,[2]; [11],7.5 ± 0.9 days
same,Untreated Contralateral Regrowth Delay,[2]; [12],7.0 ± 0.7 days

# From USRE33375E, “Treatments employing drug-containing matrices for introduction into cellular lesion areas” (Matrix Pharmaceuticals, Inc., priority 1988, dated 1990)
